Assays:
Assay type in all cases: in vivo
Kochia (Kochia scoparia) [1] = assay: Test A preemergence
Method in brief: (§1)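 Each rating is a visual injury score from 0 to 100 given about 10 d after treatment, judged against untreated controls kept alongside in the greenhouse. In loam soil–sand blend, seeds got a preemergence directed soil spray, while postemergence plants were 2 to 10 cm tall at spraying.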

[2] = tested on: barnyardgrass (Echinochloa crus-galli); assay: Test A preemergence
Method in brief: as §1

[3] = tested on: giant foxtail (Setaria faberii); assay: Test A preemergence
Method in brief: as §1

[4] = tested on: pigweed (Amaranthus retroflexus); assay: Test A preemergence
[5] = tested on: ragweed (common ragweed, Ambrosia elatior); assay: Test A preemergence
Method in brief: as §1

[6] = tested on: ryegrass, Italian (Italian ryegrass, Lolium multiflorum); assay: Test A preemergence
Method in brief: as §1

[7] = tested on: Galium (catchweed bedstraw, Galium aparine); assay: Test A postemergence
Method in brief: as §1

Kochia (Kochia scoparia) [8] = assay: Test A postemergence
Method in brief: as §1

[9] = tested on: barnyardgrass (Echinochloa crus-galli); assay: Test A postemergence
Method in brief: as §1

[10] = tested on: blackgrass (Alopecurus myosuroides); assay: Test A postemergence
Method in brief: as §1

corn (Zea mays) = assay: Test A postemergence
Method in brief: as §1

[11] = tested on: giant foxtail (Setaria faberii); assay: Test A postemergence
Method in brief: as §1

[12] = tested on: pigweed (Amaranthus retroflexus); assay: Test A postemergence
Method in brief: as §1

[13] = tested on: ragweed (common ragweed, Ambrosia elatior); assay: Test A postemergence
Method in brief: as §1

[14] = tested on: ryegrass, Italian (Italian ryegrass, Lolium multiflorum); assay: Test A postemergence
Method in brief: as §1

[15] = tested on: wheat (Triticum aestivum); assay: Test A postemergence
Method in brief: as §1

[16] = tested on: barnyardgrass (Echinochloa crus-galli); assay: Test B flooded paddy test; conditions: Flood, 250 g ai/ha; 0 to 100 scale where 0 is no effect and 100 is complete control; 13 to 15 d
Method in brief: (§2)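 Response scored visually against untreated controls, 0 = no effect and 100 = complete control, 13–15 d after treatment in the greenhouse. Compounds added to paddy water held 3 cm above soil surface. Treatment given at 2-leaf stage.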

[17] = tested on: ducksalad (Heteranthera limosa); assay: Test B flooded paddy test; conditions: Flood, 250 g ai/ha; 0 to 100 scale where 0 is no effect and 100 is complete control; 13 to 15 d
Method in brief: as §2

rice (Oryra sativa) = assay: Test B flooded paddy test; conditions: Flood, 250 g ai/ha; 0 to 100 scale where 0 is no effect and 100 is complete control; 13 to 15 d
Method in brief: as §2

[18] = tested on: sedge, umbrella (small-flower umbrella sedge, Cyperus difformis); assay: Test B flooded paddy test; conditions: Flood, 250 g ai/ha; 0 to 100 scale where 0 is no effect and 100 is complete control; 13 to 15 d
Method in brief: as §2

[19] = 125 g ai/ha, Preemergence, visual injury after approximately 10 d, 0 to 100 scale where 0 is no effect and 100 is complete control
[20] = Preemergence, 500 g ai/ha, visual injury approx. 10 d
[21] = 125 g ai/ha, postemergence, visual rating after approx. 10 d, 0 to 100 scale (0 no effect, 100 complete control)
[22] = Postemergence, 500 g ai/ha, 0 to 100 scale where 0 is no effect and 100 is complete control
[23] = 500 g ai/ha, preemergence, 0 to 100 scale, 0 = no effect, 100 = complete control
[24] = 500 g ai/ha, postemergence, visual injury, 0 to 100 scale (0 no effect, 100 complete control), approx. 10 d

CC(C)Oc1cccc(C2CNC(=O)C2C(=O)Nc2ccccc2F)c1 (stereo not drawn) [Compound 552]
Plant response rating, Kochia (Kochia (Kochia scoparia) [1]; [19]): 0
Kochia plant response rating (0 to 100 scale, 0 is no effect, 100 is complete control) (Kochia (Kochia scoparia) [1]; [20]): 70
Plant response rating, Barnyardgrass [2, 19]: 90
Barnyardgrass plant response rating (0 to 100 scale, 0 is no effect, 100 is complete control) [2, 20]: 90
Plant response rating, Foxtail, Giant [3, 19]: 90
Foxtail, Giant plant response rating (0 to 100 scale, 0 is no effect, 100 is complete control) [3, 20]: 90
Plant response rating, Pigweed [4, 19]: 0
Pigweed plant response rating (0 to 100 scale, 0 is no effect, 100 is complete control) [4, 20]: 0
Plant response rating, Ragweed [5, 19]: 0
Ragweed plant response rating (0 to 100 scale, 0 is no effect, 100 is complete control) [5, 20]: 60
Plant response rating, Ryegrass, Italian [6, 19]: 20
Ryegrass, Italian plant response rating (0 to 100 scale, 0 is no effect, 100 is complete control) [6, 20]: 40
Plant response rating, Galium [7, 21]: 40
Plant response rating, Galium [7, 22]: 60
Plant response rating, Kochia (Kochia (Kochia scoparia) [8]; [21]): 0
Plant response rating, Kochia (Kochia (Kochia scoparia) [8]; [22]): 30
Plant response rating, Barnyardgrass [9, 21]: 80
Plant response rating, Barnyardgrass [9, 22]: 90
Plant response rating, Blackgrass [10, 21]: 30
Plant response rating, Blackgrass [10, 22]: 70
Plant response rating, Corn (corn (Zea mays); [21]): 20
Plant response rating, Corn (corn (Zea mays); [22]): 50
Plant response rating, Foxtail, Giant [11, 21]: 70
Plant response rating, Foxtail, Giant [11, 22]: 80
Plant response rating, Pigweed [12, 21]: 0
Plant response rating, Pigweed [12, 22]: 0
Plant response rating, Ragweed [13, 21]: 0
Plant response rating, Ragweed [13, 22]: 20
Plant response rating, Ryegrass, Italian [14, 21]: 30
Plant response rating, Ryegrass, Italian [14, 22]: 50
Plant response rating, Wheat [15, 21]: 0
Plant response rating, Wheat [15, 22]: 40
Plant response rating, Barnyardgrass [16]: 60
Plant response rating, Ducksalad [17]: 100
Plant response rating, Rice (rice (Oryra sativa)): 10
Plant response rating, Sedge, Umbrella [18]: 0

CC(C)Oc1cccc(C2CN(C)C(=O)C2C(=O)Nc2ccccc2C(F)(F)F)c1 (stereo not drawn) [Compound 652]
Plant response rating, Kochia (Kochia (Kochia scoparia) [1]; [19]): 0
Plant response rating, Kochia (Kochia (Kochia scoparia) [1]; [23]): 30
Plant response rating, Barnyardgrass [2, 19]: 90
Plant response rating, Barnyardgrass [2, 23]: 90
Plant response rating, Foxtail, Giant [3, 19]: 100
Plant response rating, Foxtail, Giant [3, 23]: 100
Plant response rating, Pigweed [4, 19]: 0
Plant response rating, Pigweed [4, 23]: 30
Plant response rating, Ragweed [5, 19]: 0
Plant response rating, Ragweed [5, 23]: 0
Plant response rating, Ryegrass, Italian [6, 19]: 60
Plant response rating, Ryegrass, Italian [6, 23]: 60
Plant response rating, Galium [7, 21]: 30
Plant response rating, Galium [7, 24]: 50
Plant response rating, Kochia (Kochia (Kochia scoparia) [8]; [21]): 0
Plant response rating, Kochia (Kochia (Kochia scoparia) [8]; [24]): 0
Plant response rating, Barnyardgrass [9, 21]: 90
Plant response rating, Barnyardgrass [9, 24]: 90
Plant response rating, Blackgrass [10, 21]: 60
Plant response rating, Blackgrass [10, 24]: 70
Plant response rating, Corn (corn (Zea mays); [21]): 30
Plant response rating, Corn (corn (Zea mays); [24]): 60
Plant response rating, Foxtail, Giant [11, 21]: 80
Plant response rating, Foxtail, Giant [11, 24]: 90
Plant response rating, Pigweed [12, 21]: 0
Plant response rating, Pigweed [12, 24]: 20
Plant response rating, Ragweed [13, 21]: 0
Plant response rating, Ragweed [13, 24]: 0
Plant response rating, Ryegrass, Italian [14, 21]: 50
Plant response rating, Ryegrass, Italian [14, 24]: 70
Plant response rating, Wheat [15, 21]: 0
Plant response rating, Wheat [15, 24]: 40
Plant response rating, Barnyardgrass [16]: 40
Plant response rating, Ducksalad [17]: 65
Plant response rating, Rice (rice (Oryra sativa)): 0
Plant response rating, Sedge, Umbrella [18]: 0
